Results as given in patent US11976083B2, “Inhibitors of peptidylarginine deiminases” (Gilead Sciences, Inc., priority 2020, dated 2024).

Each molecule was assayed against T1, human PAD4 (Homo sapiens, UniProt Q9UM07) (assay: In vitro PAD4 BAEE biochemical assay). Settings: BAEE substrate 3 mM, 5 nM PAD4, 2 mM calcium chloride; geometric mean of multiple experiments.
T1 construct: human PAD4 (NM_012387), A2-P663, was PCR amplified; His-SUMO (N, cleaved yes); made in house; host or cells: E. coli BL21(DE3)
Summary of the method: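 Fluorescence read-out (ex 405/em 535 nm) of isoindole formed from ammonia, o-phthalaldehyde and DTT after EDTA stop. Reaction: 5 nM PAD4, 2 mM CaCl2, 3 mM BAEE, 2 h, 25 °C, after 30 min enzyme–compound preincubation. Normalised to BB-Cl-Amidine (50 µM) and DMSO controls.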

T1 sequence (Q9UM07 2-663): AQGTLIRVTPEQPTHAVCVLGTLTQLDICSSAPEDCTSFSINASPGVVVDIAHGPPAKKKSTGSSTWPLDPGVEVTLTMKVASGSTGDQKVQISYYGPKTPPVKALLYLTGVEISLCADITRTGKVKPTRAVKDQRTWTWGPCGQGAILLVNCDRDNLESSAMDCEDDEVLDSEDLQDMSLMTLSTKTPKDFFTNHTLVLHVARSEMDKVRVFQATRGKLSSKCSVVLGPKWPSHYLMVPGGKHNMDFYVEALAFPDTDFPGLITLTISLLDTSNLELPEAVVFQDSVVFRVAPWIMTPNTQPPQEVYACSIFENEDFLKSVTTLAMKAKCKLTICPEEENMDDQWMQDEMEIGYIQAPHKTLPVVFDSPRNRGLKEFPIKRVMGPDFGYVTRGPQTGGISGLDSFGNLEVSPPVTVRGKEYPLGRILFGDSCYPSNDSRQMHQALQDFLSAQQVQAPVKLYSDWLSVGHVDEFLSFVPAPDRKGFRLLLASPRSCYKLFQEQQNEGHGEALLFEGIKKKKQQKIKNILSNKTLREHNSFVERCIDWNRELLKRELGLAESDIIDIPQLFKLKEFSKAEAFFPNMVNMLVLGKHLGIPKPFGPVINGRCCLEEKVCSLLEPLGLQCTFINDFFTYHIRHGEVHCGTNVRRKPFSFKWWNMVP

SMILES | IC50
C[C@H]1NC(=O)CCCCCCCn2c(-c3nc4cc(C(=O)N5CCC[C@@H](N)C5)ccn4c3C3CC3)cc3ccc1nc32 [Example 228, (11~{R})-17-[7-[(3~{R})-3-aminopiperidine-1-carbonyl]-3-cyclopropyl-imidazo[1,2-a]pyridin-2-yl]-11-methyl-1,10,19-triazatricyclo[10.5.2.0^{15,18}]nonadeca-12(19),13,15(18),16-tetraen-9-one] | 131 nM
COc1cc(C(=O)N2CCC[C@@H](N)C2)cc2nc(-c3cc4ccc5nc4n3CCCCCCC(C)(C)C(=O)N[C@@H]5C)n(C3CC3)c12 [Example 230, (11~{R})-17-[5-[(3~{R})-3-aminopiperidine-1-carbonyl]-1-cyclopropyl-7-methoxy-benzimidazol-2-yl]-8,8,11-trimethyl-1,10,19-triazatricyclo[10.5.2.0^{15,18}]nonadeca-12(19),13,15(18),16-tetraen-9-one] | 84 nM
COc1cc(C(=O)N2CCC[C@@H](N)C2)cc2nc(-c3cc4ccc5nc4n3CCCCCCC(=O)N[C@@H]5C)n(C3CC3)c12 [Example 231, (10~{R})-16-[5-[(3~{R})-3-aminopiperidine-1-carbonyl]-1-cyclopropyl-7-methoxy-benzimidazol-2-yl]-10-methyl-1,9,18-triazatricyclo[9.5.2.0^{14,17}]octadeca-11(18),12,14(17),15-tetraen-8-one] | 84 nM
COc1cc(C(=O)N2CCC[C@@H](N)C2)cc2nc(-c3cc4ccc5nc4n3CCCCCCCC(=O)NC5)n(C)c12 [Example 232, 17-[5-[(3~{R})-3-aminopiperidine-1-carbonyl]-7-methoxy-1-methyl-benzimidazol-2-yl]-1,10,19-triazatricyclo[10.5.2.0^{15,18}]nonadeca-12(19),13,15(18),16-tetraen-9-one] | 549 nM
COc1cc(C(=O)N2CCC[C@@H](N)C2)cc2nc(-c3cc4ccc5nc4n3CCCCCCC3(CC3)C(=O)N[C@@H]5C)n(C)c12 [Example 233, (11~{R})-17-[5-[(3~{R})-3-aminopiperidine-1-carbonyl]-7-methoxy-1-methyl-benzimidazol-2-yl]-11-methyl-spiro[1,10,19-triazatricyclo[10.5.2.0^{15,18}]nonadeca-12(19),13,15(18),16-tetraene-8,1′-cyclopropane]-9-one] | 82 nM
COc1cc(C(=O)N2CCC[C@@H](N)C2)cc2nc(-c3cc4ccc5nc4n3CCCCCCCC(=O)N(C)C5)n(C)c12 [Example 234, 17-[5-[(3˜{R})-3-aminopiperidine-1-carbonyl]-7-methoxy-1-methyl-benzimidazol-2-yl]-10-methyl-1,10,19-triazatricyclo[10.5.2.0^{15,18}]nonadeca-12(19),13,15(18),16-tetraen-9-one] | 622 nM
COc1cc(C(=O)N2CCC[C@@H](N)C2)cc2nc(-c3cc4ccc5nc4n3CCCCCCCC(=O)NC5C(F)F)n(C)c12 (some centres unmarked) [Example 238, 17-[5-[(3~{R})-3-aminopiperidine-1-carbonyl]-7-methoxy-1-methyl-benzimidazol-2-yl]-11-(difluoromethyl)-1,10,19-triazatricyclo[10.5.2.0^{15,18}]nonadeca-12(19),13,15(18),16-tetraen-9-one] | 87 nM
COc1cc(C(=O)N2CC[C@@H](OC)[C@@H](N)C2)cc2nc(-c3cc4ccc5nc4n3Cc3ccccc3C/C=C/CC(=O)N[C@@H]5C)n(C)c12 [Example 239, (10~{E},15~{R})-21-[5-[(3~{S},4~{R})-3-amino-4-methoxy-piperidine-1-carbonyl]-7-methoxy-1-methyl-benzimidazol-2-yl]-15-methyl-1,14,23-triazatetracyclo[14.5.2.0^{3,8}.0^{19,22}] tricosa-3(8),4,6,10,16,18,20,22-octaen-13-one] | 583 nM
COc1cc(C(=O)N2CC[C@@H](OC)[C@@H](N)C2)cc2nc(-c3cc4ccc5nc4n3CCCCCc3nccnc3C(=O)N[C@@H]5C)n(C)c12 [Example 240, (2~{R})-17-[5-[(3~{S),4~{R})-3-amino-4-methoxy-piperidine-1-carbonyl]-7-methoxy-1-methyl-benzimidazol-2-yl]-2-methyl-3,6,9,16,22-pentazatetracyclo[14.5.2.0^{5,10}.0^{19, 23}]tricosa-1(21),5(10),6,8,17,19,22-heptaen-4-one] | 137 nM
COc1cc(C(=O)N[C@H]2CNCC[C@@H]2F)cc2nc(-c3cc4ccc5nc4n3CCCCCc3nccnc3C(=O)N[C@@H]5C)n(C)c12 [Example 241, ~{N}-[(3~{S},4~{S})-4-fluoro-3-piperidyl]-7-methoxy-1-methyl-2-[(2~{R})-2-methyl-4-oxo-3,6,9,16,22-pentazatetracyclo[14.5.2.0^{5,10}.0^{19, 23}]tricosa-1(21),5(10),6,8,17,19,22-heptaen-17-yl]benzimidazole-5-carboxamide] | 82 nM
COc1cc(C(=O)N[C@H]2CNCC[C@@H]2O)cc2nc(-c3cc4ccc5nc4n3CCCCCCC(C)(C)C(=O)N[C@@H]5C)n(C)c12 [Example 244, ~{N}-[(3~{S},4~{S})-4-hydroxy-3-piperidyl]-7-methoxy-1-methyl-2-[(11~{R})-8,8,11-trimethyl-9-oxo-1,10,19-triazatricyclo[10.5.2.0^{15,18}]nonadeca-12(19),13,15(18),16-tetraen-17-yl]benzimidazole-5-carboxamide] | 2580 nM
COc1cc(C(=O)N2[C@H]3CC[C@@H]2[C@H](N)C3)cc2nc(-c3cc4ccc5nc4n3CCCCCCCC(=O)NC5(C)C)n(C)c12 [Example 251, 17-[5-[(1~{R},2~{R},4~{S})-2-amino-7-azabicyclo[2.2.1]heptane-7-carbonyl]-7-methoxy-1-methyl-benzimidazol-2-yl]-11,11-dimethyl-1,10,19-triazatricyclo[10.5.2.0^{15,18}]nonadeca-12(19),13,15(18),16-tetraen-9-one] | 74 nM

Second part, the molecule after the results:

IC50 | SMILES
72 nM | COc1cc(C(=O)N2CCC[C@@H](N)C2)cc2nc(-c3cc4ccc5nc4n3CCCCCCCC(=O)N[C@@H]5C)n(C3CC3)c12 [Example 229, (11~{R})-17-[5-[(3~{R})-3-aminopiperidine-1-carbonyl]-1-cyclopropyl-7-methoxy-benzimidazol-2-yl]-11-methyl-1,10,19-triazatricyclo[10.5.2.0^{15,18}]nonadeca-12(19),13,15(18),16-tetraen-9-one]
62 nM | CCc1c(-c2cc3ccc4nc3n2CCCCCCC(C)(C)C(=O)N[C@@H]4C)nn2cc(C(=O)N3CCC[C@@H](N)C3)ccc12 [Example 237, (11~{R})-17-[6-[(3~{R})-3-aminopiperidine-1-carbonyl]-3-ethyl-pyrazolo[1,5-a]pyridin-2-yl]-8,8,11-trimethyl-1,10,19-triazatricyclo[10.5.2.0^{15,18}]nonadeca-12(19),13,15(18),16-tetraen-9-one]
31 nM | C[C@H]1NC(=O)[C@@H]2C[C@H]2CCCCCn2c(-c3nc4cc(C(=O)N[C@H]5CNCC[C@@H]5F)c(F)cc4n3C)cc3ccc1nc32 [Example 242, 6-fluoro-~{N}-[(3~{S},4~{S})-4-fluoro-3-piperidyl]-1-methyl-2-[(2~{R},5~{R},7~{R})-2-methyl-4-oxo-3,13,19-triazatetracyclo[11.5.2.0^{5,7}.0^{16,20}]icosa-1(19),14,16(20),17-tetraen-14-yl]benzimidazole-5-carboxamide]
68 nM | C[C@H]1NC(=O)c2nccnc2CCCCCn2c(-c3nc4cc(C(=O)N[C@H]5CNCC[C@@H]5F)c(F)cc4n3C3CC3)cc3ccc1nc32 [Example 243, 1-cyclopropyl-6-fluoro-~{N}-[(3~{S},4~{S})-4-fluoro-3-piperidyl]-2-[(2~{R})-2-methyl-4-oxo-3,6,9,16,22-pentazatetracyclo[14.5.2.0^{5,10}.0^{19, 23}]tricosa-1(21),5(10),6,8,17,19,22-heptaen-17-yl]benzimidazole-5-carboxamide]
18 nM | COc1cc(C(=O)N2[C@H]3CC[C@@H]2[C@H](N)C3)cc2nc(-c3cc4ccc5nc4n3CCCCCOCC(=O)N[C@@H]5C)c(C)n12 [Example 247, (11~{R})-17-[7-[(1~{R},2~{R},4~{S})-2-amino-7-azabicyclo[2.2.1]heptane-7-carbonyl]-5-methoxy-3-methyl-imidazo[1,2-a]pyridin-2-yl]-11-methyl-7-oxa-1,10,19-triazatricyclo[10.5.2.0^{15,18}]nonadeca-12(19),13,15(18),16-tetraen-9-one]
44 nM | COc1cc(C(=O)N2[C@H]3CC[C@@H]2[C@H](N)C3)cc2nc(-c3cc4ccc5nc4n3CCCCCCOCC(=O)N[C@@H]5C)c(C)n12 [Example 248, (12~{R})-18-[7-[(1~{R},2~{R},4~{S})-2-amino-7-azabicyclo[2.2.1]heptane-7-carbonyl]-5-methoxy-3-methyl-imidazo[1,2-a]pyridin-2-yl]-12-methyl-8-oxa-1,11,20-triazatricyclo[11.5.2.0^{16,19}]icosa-13(20),14,16(19),17-tetraen-10-one]
51 nM | C[C@H]1NC(=O)CCCCCCCn2c(-c3nc4cc(C(=O)N5[C@H]6CC[C@@H]5[C@H](N)C6)ccn4c3C3CC3)cc3ccc1nc32 [Example 249, (11~{R})-17-[7-[(1~{R},2~{R},4~{S})-2-amino-7-azabicyclo[2.2.1]heptane-7-carbonyl]-3-cyclopropyl-imidazo[1,2-a]pyridin-2-yl]-11-methyl-1,10,19-triazatricyclo[10.5.2.0^{15,18}]nonadeca-12(19),13,15(18),16-tetraen-9-one]
44 nM | COc1cc(C(=O)N2[C@H]3CC[C@@H]2[C@H](N)C3)cc2nc(-c3cc4ccc5nc4n3CCCCCCCC(=O)N[C@@H]5C)n(C3CC3)c12 [Example 250, (11~{R})-17-[5-[(1~{R},2~{R},4~{S})-2-amino-7-azabicyclo[2.2.1]heptane-7-carbonyl]-1-cyclopropyl-7-methoxy-benzimidazol-2-yl]-11-methyl-1,10,19-triazatricyclo[10.5.2.0^{15,18}]nonadeca-12(19),13,15(18),16-tetraen-9-one]
